Patent US20060251714A1, “Pharmaceutical formulations of amyloid inhibiting compounds” (priority 2005, published 2006)

Assay: Gastrointestinal tolerability of capsules (solid dosage form)
Assay type: in vivo
Settings: solid dosage form (capsules, Table 2)
Method: Furthermore, the non-hygroscopic nature of the acid form makes it desirable as active pharmaceutical ingredient. To further protect against any possible gastrointestinal intolerance that could result from the acid form, the tablets are enteric-coated and a modified-release agent is added to control any rapid release of the drug in the stomach and the intestine, respectively.

NCCCS(=O)(=O)[O-].[Na+] [3-amino-1-propanesulfonic acid sodium salt]
gastrointestinal symptoms (i.e. nausea and vomiting): associated with gastrointestinal symptoms
